From ChEMBL document CHEMBL5608235, “Tricyclic Benzo[1,3]oxazinyloxazolidinones as Potent Antibacterial Agents against Drug-Resistant Pathogens” (J Med Chem, 2024)
≈ marks a conversion by molar mass, not a printed value. Calls of active or inactive are those of the source. No cut-off for these calls is given here.

How the values were obtained:
[1] = Cytotoxicity against African green monkey Vero cells incubated for 48 hrs by MTT assay; assay type: toxicity, cell-based, Chlorocebus sabaeus
Staphylococcus aureus [2] = test: (§1) Antibacterial activity against methicillin resistant Staphylococcus aureus ATCC 33592 infected in cyclophosphamide-induced immunosuppressed Kunming mouse assessed as reduction in histopathological change in spleen at 50 mg/kg,po administration measured after 24 hrs by hematoxylin and eosin staining based microscopy; assay type: functional, organism-based
Enterococcus faecalis [3] = test: Antibacterial activity against Linezolid resistant Enterococcus faecalis clinical isolate 20-1 assessed as inhibition of bacterial growth incubated for 7 days by alamar blue assay; assay type: functional; settings: clinical isolate 20-1, 168 h, time 7 day
Cell membrane [4] = test: Disruption of cell membrane integrity in methicillin resistant Staphylococcus aureus ATCC 33592 assessed as increase in blue fluorescence at 1 ug/ml incubated for 1 hr by […] and propidium iodide double staining based confocal microscopic analysis; assay type: cell membranes; settings: dose 1.0 µg/ml
Staphylococcus aureus [5] = test: Inhibition of biofilm formation in Staphylococcus aureus ATCC 29213 at 1 to 10 ug/ml incubated for 48 hrs by crystal violet staining based assay; assay type: functional, organism-based; settings: dose 1-10 µg/ml
Cell membrane [6] = test: Disruption of cell membrane in methicillin resistant Staphylococcus aureus ATCC 33592 assessed as change in morphology at 0.5 ug/ml incubated for 30 mins by Scanning electron microscopic analysis; assay type: cell membranes; settings: dose 0.5 µg/ml
Enterococcus faecalis [7] = test: Antibacterial activity against Linezolid resistant Enterococcus faecalis clinical isolate 20-2 assessed as inhibition of bacterial growth incubated for 7 days by alamar blue assay; assay type: functional; settings: clinical isolate 20-2, 168 h, time 7 day
[8] = Drug concentration in BALB/c mouse plasma at 10 mg/kg,po administration measured within 15 mins by LC-MS/MS analysis; assay type: ADME, organism-based
Staphylococcus aureus [9] = test: Antibacterial activity against methicillin resistant Staphylococcus aureus ATCC 33592 infected in cyclophosphamide-induced immunosuppressed Kunming mouse assessed as reduction of bacterial load in liver at 10 to 50 mg/kg,po administration measured after 24 hrs by hematoxylin and eosin staining based microscopy; assay type: functional, organism-based; settings: dose 10-50 mg/kg
[10] = Cmax in BALB/c mouse at 1 mg/kg,iv administration measured upto 24 hrs by LC-MS/MS analysis; assay type: ADME, organism-based; settings: in vivo
[11] = Volume of distribution in BALB/c mouse at 1 mg/kg,iv administration measured upto 24 hrs by LC-MS/MS analysis; assay type: ADME, organism-based; settings: in vivo
Staphylococcus aureus [12] = test: Antibacterial activity against methicillin resistant Staphylococcus aureus ATCC 33592 infected in cyclophosphamide-induced immunosuppressed Kunming mouse assessed as increase in IL-10 level at po administration measured after 24 hrs by ELISA; assay type: functional, organism-based
Cell membrane [13] = test: Disruption of cell membrane integrity in Staphylococcus aureus ATCC 25923 assessed as increase in red fluorescence at 1 ug/ml incubated for 1 hr by […] and propidium iodide double staining based confocal microscopic analysis; assay type: cell membranes; settings: dose 1.0 µg/ml
[14] = Clearance in BALB/c mouse at 1 mg/kg,iv administration measured upto 24 hrs by LC-MS/MS analysis; assay type: ADME, organism-based; settings: in vivo
[15] = Plasma protein binding in BALB/c mouse at 1 mg/kg,iv administration measured upto 24 hrs by LC-MS/MS analysis; assay type: ADME, organism-based; settings: read-out: PPB (converted)
Cell membrane [16] = test: Disruption of cell membrane integrity in methicillin resistant Staphylococcus aureus ATCC 33592 assessed as increase in blue fluorescence at 0.5 ug/ml incubated for 1 hr by […] and propidium iodide double staining based confocal microscopic analysis; assay type: cell membranes; settings: dose 0.5 µg/ml
Staphylococcus aureus [17] = test: as §1, with “appearance of inflated alveoli” for “reduction”, “lung” for “histopathological change in spleen”; assay type: functional, organism-based
Staphylococcus aureus [18] = test: Antibacterial activity against daptomycin/methicillin resistant Staphylococcus aureus assessed as inhibition of bacterial growth incubated for 7 days by alamar blue assay; assay type: functional; settings: 168 h, time 7 day
Cell membrane [19] = test: Disruption of cell membrane in methicillin resistant Staphylococcus aureus ATCC 33592 assessed as damage in bacterial cell envelope at 0.5 ug/ml incubated for 30 mins by Scanning electron microscopic analysis; assay type: cell membranes; settings: dose 0.5 µg/ml
Staphylococcus aureus [20] = test: as §1, with “inflammatory cell infiltration” for “histopathological change”, “kidney” for “spleen”; assay type: functional, organism-based
[21] = system: Staphylococcus epidermidis; test: Antibacterial activity against methicillin resistant Staphylococcus epidermidis clinical isolate 20-1 assessed as inhibition of bacterial growth incubated for 7 days by alamar blue assay; assay type: functional; settings: clinical isolate 20-1, 168 h, time 7 day
[22] = system: Mycobacterium tuberculosis; test: Antibacterial activity against Mycobacterium tuberculosis H37Rv assessed as inhibition of bacterial growth incubated for 7 days by alamar blue assay; assay type: functional; settings: 168 h, time 7 day
Cell membrane [23] = test: Disruption of cell membrane integrity in Staphylococcus aureus ATCC 25923 assessed as increase in blue fluorescence at 1 ug/ml incubated for 1 hr by […] and propidium iodide double staining based confocal microscopic analysis; assay type: cell membranes; settings: dose 1.0 µg/ml
Staphylococcus aureus [24] = test: as §1, with “congestion” for “histopathological change”, “10” for “50”; assay type: functional, organism-based
Staphylococcus aureus [25] = test: Antibacterial activity against methicillin resistant Staphylococcus aureus ATCC 33592 infected in cyclophosphamide-induced immunosuppressed Kunming mouse by measuring survival rate of mouse at 25 mg/kg,po administration measured for 7 days; assay type: functional; settings: ATCC 33592, 168 h, time 7 day
Staphylococcus aureus [26] = test: Antibacterial activity against Staphylococcus aureus ATCC25923 assessed as inhibition of bacterial growth incubated for 18 hrs by microdilution broth assay; assay type: functional
Staphylococcus aureus [27] = test: as §1, with “inflammatory cell infiltration” for “histopathological change”, “liver” for “spleen”; assay type: functional, organism-based
Staphylococcus aureus [28] = test: as §1, with “10” for “50”; assay type: functional, organism-based
[29] = system: Staphylococcus epidermidis; test: Antibacterial activity against Staphylococcus epidermidis ATCC12228 assessed as inhibition of bacterial growth incubated for 18 hrs by microdilution broth assay; assay type: functional
Enterococcus = test: Antibacterial activity against vancomycin resistant Enterococcus clinical isolate 20-1 assessed as inhibition of bacterial growth incubated for 7 days by alamar blue assay; assay type: functional; settings: clinical isolate 20-1, 168 h, time 7 day
Staphylococcus aureus [30] = test: Antibacterial activity against Linezolid resistant Staphylococcus aureus clinical isolate 20-1 assessed as inhibition of bacterial growth incubated for 7 days by alamar blue assay; assay type: functional; settings: clinical isolate 20-1, 168 h, time 7 day
Cell membrane [31] = test: Disruption of cell membrane integrity in methicillin resistant Staphylococcus aureus ATCC 33592 assessed as increase in red fluorescence at 0.5 ug/ml incubated for 1 hr by […] and propidium iodide double staining based confocal microscopic analysis; assay type: cell membranes; settings: dose 0.5 µg/ml
[32] = MRT (0 to infinity) in BALB/c mouse at 1 mg/kg,iv administration measured upto 24 hrs by LC-MS/MS analysis; assay type: ADME, organism-based; settings: in vivo
Staphylococcus aureus [33] = test: Antibacterial activity against methicillin resistant Staphylococcus aureus ATCC 33592 infected in cyclophosphamide-induced immunosuppressed Kunming mouse assessed as increase in white blood cell at 25 to 50 mg/kg,po administration measured after 7 days by Giemsa staining based analysis; assay type: functional, organism-based; settings: dose 25-50 mg/kg, time 7.0 day
Staphylococcus aureus [34] = test: Antibacterial activity against methicillin resistant Staphylococcus aureus ATCC 33592 infected in cyclophosphamide-induced immunosuppressed Kunming mouse assessed as decrease in IL-1beta level at po administration measured after 24 hrs by ELISA; assay type: functional, organism-based
Staphylococcus aureus [35] = test: Antibacterial activity against Linezolid resistant Staphylococcus aureus assessed as inhibition of bacterial growth incubated for 7 days by alamar blue assay; assay type: functional; settings: 168 h, time 7 day

CC(=O)NC[C@@H]1OC(=O)N2Cc3cc(-c4ccc(C#N)cc4)c(F)cc3O[C@@H]12
IC50 at 48 h [1]: 35 µg/mL (≈ 91.8 µM) | Activity (Staphylococcus aureus [2]): Active | MIC (Enterococcus faecalis [3]): 1 µg/mL (≈ 2.62 µM) | Activity (Cell membrane [4]): Active | inhibition (Staphylococcus aureus [5]): Active | Activity (Cell membrane [6]): Active | MIC (Enterococcus faecalis [7]): 1 µg/mL (≈ 2.62 µM) | concentration at 0.25 h [8]: 1000 ng/mL | Activity (Staphylococcus aureus [9]): Active | Cmax [10]: 814 ng/mL | Vd [11]: 1.94 L/kg | Activity (Staphylococcus aureus [12]): Dose-Dependent Effect | Activity (Cell membrane [13]): Active | clearance [14]: 2.92 mL/min/kg | fraction unbound at 24 h [15]: 0.239 | Activity (Cell membrane [16]): Active | Activity (Staphylococcus aureus [17]): Active | MIC (Staphylococcus aureus [18]): 1 µg/mL (≈ 2.62 µM) | Activity (Cell membrane [19]): Active | Activity (Staphylococcus aureus [20]): Active | MIC [21]: 0.06 µg/mL (≈ 0.157 µM) | MIC [22]: 0.52 µg/mL (≈ 1.36 µM) | Activity (Cell membrane [23]): Active | Activity (Staphylococcus aureus [24]): Active | survival at 25 mg/kg (Staphylococcus aureus [25]): 100% | MIC (Staphylococcus aureus [26]): 0.5 µg/mL (≈ 1.31 µM) | Activity (Staphylococcus aureus [27]): Active | Activity (Staphylococcus aureus [28]): Active | MIC [29]: 0.032 µg/mL (≈ 0.0839 µM) | MIC (Enterococcus): 0.5 µg/mL (≈ 1.31 µM) | MIC (Staphylococcus aureus [30]): 8 µg/mL (≈ 21 µM) | Activity (Cell membrane [31]): Active | MRT inf [32]: 6.7 h | Activity (Staphylococcus aureus [33]): Active | Activity (Staphylococcus aureus [34]): Dose-Dependent Effect | MIC (Staphylococcus aureus [35]): 2 µg/mL (≈ 5.24 µM)
